Measured values taken from PMC4321988, “Engineering of Helicobacter pylori L-Asparaginase: Characterization of Two Functionally Distinct Groups of Mutants” (PLoS ONE, 2015).
Read-outs that look alike come from different tables or passages of the source.

How the values were obtained:
[1] = target: T1, HpASNase (Helicobacter pylori CCUG 17874 type II L-asparaginase) (Helicobacter pylori, UniProt O25424); assay: glutamate dehydrogenase-coupled NADH assay, […] nm; assay type: biochemical; settings: 50 mM HEPES pH 7.5, 37°C
T1 construct: gene ansA; recombinant, E. coli BL21(DE3) pLysS, plasmid pDC1 (pET101 D-TOPO derivative), His-tag kept (given as N-terminal), 37 kDa band, tetramer

[2] = target: Helicobacter pylori CCUG 17874 type II L-asparaginase T16D mutant (Helicobacter pylori CCUG 17874); assay: SEC; analytical gel filtration of the purified mutant; data not shown; conditions not given
[3] = target: Helicobacter pylori CCUG 17874 type II L-asparaginase T95E mutant (Helicobacter pylori CCUG 17874); assay: as above

T1 sequence (O25424 whole entry): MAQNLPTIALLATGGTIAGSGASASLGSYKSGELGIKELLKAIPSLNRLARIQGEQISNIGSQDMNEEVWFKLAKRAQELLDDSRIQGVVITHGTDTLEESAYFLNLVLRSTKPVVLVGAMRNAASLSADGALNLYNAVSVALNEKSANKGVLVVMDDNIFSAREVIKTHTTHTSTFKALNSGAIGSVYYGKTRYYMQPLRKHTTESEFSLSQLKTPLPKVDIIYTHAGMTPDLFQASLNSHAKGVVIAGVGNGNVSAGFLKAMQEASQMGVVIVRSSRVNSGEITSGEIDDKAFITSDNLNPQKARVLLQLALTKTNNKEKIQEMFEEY

Compound: NC(=O)C[C@H](N)C(=O)O [L-asparagine]
- Km ([1]; read-out: L-asparagine / S0.5, nH 1.0): 0.29 ± 0.03 mM

Compound: NC(=O)CC[C@H](N)C(=O)O [L-glutamine]
- Km ([1]; read-out: L-glutamine / S0.5, nH 2.0): 46.4 ± 4.02 mM

Compound: Helicobacter pylori CCUG 17874 type II L-asparaginase T16D mutant (enzyme)
- stoichiometry N [2]: 4

Compound: Helicobacter pylori CCUG 17874 type II L-asparaginase T95E mutant (enzyme)
- stoichiometry N [3]: 4
